Target: SIK2 (Homo sapiens (Human), UniProt Q9H0K1)
Assay: SIK2 Enzymatic Assay Version 2 (High ATP)
Assay type: biochemical
Conditions: 3 mM ATP and 200 μM HDAC5tide final, ADP-Glo Max luminescence
Method in brief: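 Run at room temperature; SIK2 enzyme at 6 nM (2× final) preincubated with compound 30 min before reaction. ADP formation detected by ADP-Glo Max (2 h reagent, 1 h detection) with luminescence read-out.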

Sequence of SIK2 (Q9H0K1 whole entry, species assumed): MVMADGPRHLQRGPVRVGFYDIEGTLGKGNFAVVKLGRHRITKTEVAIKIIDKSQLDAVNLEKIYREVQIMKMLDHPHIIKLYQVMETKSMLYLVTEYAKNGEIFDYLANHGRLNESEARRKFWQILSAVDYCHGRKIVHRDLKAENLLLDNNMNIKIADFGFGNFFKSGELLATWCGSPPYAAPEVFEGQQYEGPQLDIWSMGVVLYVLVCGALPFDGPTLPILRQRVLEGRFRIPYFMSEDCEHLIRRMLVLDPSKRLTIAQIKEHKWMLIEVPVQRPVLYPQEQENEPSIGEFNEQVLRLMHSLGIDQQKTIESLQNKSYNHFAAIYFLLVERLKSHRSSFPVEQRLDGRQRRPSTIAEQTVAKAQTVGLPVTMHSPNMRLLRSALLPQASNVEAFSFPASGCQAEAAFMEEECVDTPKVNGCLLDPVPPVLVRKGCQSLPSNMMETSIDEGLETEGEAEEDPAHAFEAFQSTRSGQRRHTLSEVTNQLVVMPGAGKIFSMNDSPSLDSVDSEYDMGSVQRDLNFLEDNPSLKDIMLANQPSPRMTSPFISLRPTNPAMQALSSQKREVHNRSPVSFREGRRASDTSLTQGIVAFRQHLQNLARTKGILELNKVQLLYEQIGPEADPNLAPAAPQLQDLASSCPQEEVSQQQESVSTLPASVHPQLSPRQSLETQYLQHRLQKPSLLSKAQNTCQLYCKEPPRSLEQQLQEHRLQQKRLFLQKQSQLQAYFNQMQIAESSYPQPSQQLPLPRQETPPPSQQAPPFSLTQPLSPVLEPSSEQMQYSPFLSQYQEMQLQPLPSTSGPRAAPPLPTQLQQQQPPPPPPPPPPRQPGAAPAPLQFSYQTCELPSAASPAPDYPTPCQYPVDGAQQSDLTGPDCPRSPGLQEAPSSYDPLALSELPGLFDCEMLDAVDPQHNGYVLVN

| Structure (SMILES) | IC50 |
| --- | --- |
| COc1nnc(Nc2cc3cc(-c4c(OC[C@H]5CCN5C)cnn4C)ccn3n2)cc1C [Example 121, N-(6-methoxy-5-methyl-pyridazin-3-yl)-5-[2-methyl-4-[[(2R)-1-methylazetidin-2-yl]methoxy]pyrazol-3-yl]pyrazolo[1,5-a]pyridin-2-amine] | 1 nM |
| Cc1nc(Nc2cc3cc(-c4c(OC[C@H]5CCN5C)cnn4C)ccn3n2)cc(C(F)(F)F)n1 [Example 122, 5-[2-methyl-4-[[(2R)-1-methylazetidin-2-yl]methoxy]pyrazol-3-yl]-N-[2-methyl-6-(trifluoromethyl)pyrimidin-4-yl]pyrazolo[1,5-a]pyridin-2-amine] | 3.6 nM |
| CN1CC[C@@H]1COc1cnn(C)c1-c1ccn2nc(Nc3cc(C(F)(F)F)ncn3)cc2c1 [Example 123, 5-[2-methyl-4-[[(2R)-1-methylazetidin-2-yl]methoxy]pyrazol-3-yl]-N-[6-(trifluoromethyl)pyrimidin-4-yl]pyrazolo[1,5-a]pyridin-2-amine] | 8.4 nM |
| CN1CC[C@@H]1COc1cnn(C)c1-c1ccn2nc(Nc3cn(C)nn3)cc2c1 [Example 124, 5-[2-methyl-4-[[(2R)-1-methylazetidin-2-yl]methoxy]pyrazol-3-yl]-N-(1-methyltriazol-4-yl)pyrazolo[1,5-a]pyridin-2-amine] | 14.9 nM |
| CN1CC[C@@H]1COc1cnn(C)c1-c1ccn2nc(Nc3ccc4cnccc4n3)cc2c1 [Example 125, N-[5-[2-methyl-4-[[(2R)-1-methylazetidin-2-yl]methoxy]pyrazol-3-yl]pyrazolo[1,5-a]pyridin-2-yl]-1,6-naphthyridin-2-amine] | 1.3 nM |
| CNC(=O)c1ccc(Nc2cc3cc(-c4c(OC[C@H]5CCN5C)cnn4C)ccn3n2)nc1 [Example 126, N-methyl-6-[[5-[2-methyl-4-[[(2R)-1-methylazetidin-2-yl]methoxy]pyrazol-3-yl]pyrazolo[1,5-a]pyridin-2-yl]amino]pyridine-3-carboxamide] | 4.1 nM |
| COc1cc(Nc2cc3cc(-c4c(OC[C@H]5CCN5C)cnn4C)ccn3n2)ncn1 [Example 127, N-(6-methoxypyrimidin-4-yl)-5-[2-methyl-4-[[(2R)-1-methylazetidin-2-yl]methoxy]pyrazol-3-yl]pyrazolo[1,5-a]pyridin-2-amine] | 11 nM |
| CN1CC[C@@H]1COc1cnn(C)c1-c1ccn2nc(Nc3ccnc(NC4CC4)n3)cc2c1 [Example 128, N2-cyclopropyl-N4-[5-[2-methyl-4-[[(2R)-1-methylazetidin-2-yl]methoxy]pyrazol-3-yl]pyrazolo[1,5-a]pyridin-2-yl]pyrimidine-2,4-diamine] | < 0.847 nM |
| Cc1cc(Nc2cc3cc(-c4c(OC[C@H]5CCN5C)cnn4C)ccn3n2)nc(NC2CCCC2)n1 [Example 129, N2-cyclopentyl-6-methyl-N4-[5-[2-methyl-4-[[(2R)-1-methylazetidin-2-yl]methoxy]pyrazol-3-yl]pyrazolo[1,5-a]pyridin-2-yl]pyrimidine-2,4-diamine] | < 0.847 nM |
| CCn1ncc(OC[C@H]2CCN2C)c1-c1ccn2nc(Nc3cc(C)nc(C)n3)cc2c1 [Example 130, N-(2,6-dimethylpyrimidin-4-yl)-5-[2-ethyl-4-[[(2R)-1-methylazetidin-2-yl]methoxy]pyrazol-3-yl]pyrazolo[1,5-a]pyridin-2-amine] | < 0.847 nM |
| [2H]C([2H])([2H])n1ncc(OC[C@H]2CCN2C)c1-c1ccn2nc(Nc3cc(C)nc(C)n3)cc2c1 [Example 131, N-(2,6-dimethylpyrimidin-4-yl)-5-[4-[[(2R)-1-methylazetidin-2-yl]methoxy]-2-(trideuteriomethyl)pyrazol-3-yl]pyrazolo[1,5-a]pyridin-2-amine] | < 0.847 nM |
| CN1CC[C@@H]1COc1cnn(C)c1-c1ccn2nc(Nc3cnc(C(=O)NCC(C)(C)O)cn3)cc2c1 [Example 132, N-(2-hydroxy-2-methyl-propyl)-5-[[5-[2-methyl-4-[[(2R)-1-methylazetidin-2-yl]methoxy]pyrazol-3-yl]pyrazolo[1,5-a]pyridin-2-yl]amino]pyrazine-2-carboxamide] | 8.9 nM |
| CNC(=O)c1cnc(Nc2cc3cc(-c4c(OC[C@H]5CCN5C)cnn4C)ccn3n2)cn1 [Example 133, N-methyl-5-[[5-[2-methyl-4-[[(2R)-1-methylazetidin-2-yl]methoxy]pyrazol-3-yl]pyrazolo[1,5-a]pyridin-2-yl]amino]pyrazine-2-carboxamide] | 7.1 nM |
| Cc1cc(Nc2cc3cc(-c4c(OC[C@@H]5CCN5C)cnn4C)ccn3n2)nc(C2CC2)n1 [Example 134, N-(2-cyclopropyl-6-methyl-pyrimidin-4-yl)-5-[2-methyl-4-[[(2S)-1-methylazetidin-2-yl]methoxy]pyrazol-3-yl]pyrazolo[1,5-a]pyridin-2-amine] | 2.8 nM |
| CN1CC[C@@H]1COc1cnn(C)c1-c1ccn2nc(Nc3ccc(C(=O)NCCC#N)cn3)cc2c1 [Example 135, N-(2-cyanoethyl)-6-[[5-[2-methyl-4-[[(2R)-1-methylazetidin-2-yl]methoxy]pyrazol-3-yl]pyrazolo[1,5-a]pyridin-2-yl]amino]pyridine-3-carboxamide] | 5.8 nM |
| Cc1cc(Nc2cc3cc(-c4c(OC[C@H]5CCN5C)cnn4C)ccn3n2)nc2c1CCC2 [Example 136, N-(4-methyl-6,7-dihydro-5H-cyclopenta[b]pyridin-2-yl)-5-[2-methyl-4-[[(2R)-1-methylazetidin-2-yl]methoxy]pyrazol-3-yl]pyrazolo[1,5-a]pyridin-2-amine] | 2.3 nM |
| CCc1cc(Nc2cc3cc(-c4c(OC[C@@H]5CCN5C)cnn4C)ccn3n2)nc(C)n1 [Example 137, N-(6-ethyl-2-methyl-pyrimidin-4-yl)-5-[2-methyl-4-[[(2S)-1-methylazetidin-2-yl]methoxy]pyrazol-3-yl]pyrazolo[1,5-a]pyridin-2-amine] | 16.9 nM |
| Cc1ncc(Nc2cc3cc(-c4c(OC[C@@H]5CCN5C)cnn4C)ccn3n2)nc1C [Example 138, N-(5,6-dimethylpyrazin-2-yl)-5-[2-methyl-4-[[(2S)-1-methylazetidin-2-yl]methoxy]pyrazol-3-yl]pyrazolo[1,5-a]pyridin-2-amine] | 40.3 nM |
| Cc1cc(Nc2cc3cc(-c4c(OC[C@@H]5CCN5C)cnn4C)ccn3n2)nc(C)n1 [Example 139, N-(2,6-dimethylpyrimidin-4-yl)-5-[2-methyl-4-[[(2S)-1-methylazetidin-2-yl]methoxy]pyrazol-3-yl]pyrazolo[1,5-a]pyridin-2-amine] | 19.7 nM |
| Cc1cc(Nc2cc3cc(-c4c(OC[C@H]5CCN5C)cnn4C(F)F)ccn3n2)nc(C)n1 [Example 140, 5-[2-(difluoromethyl)-4-[[(2R)-1-methylazetidin-2-yl]methoxy]pyrazol-3-yl]-N-(2,6-dimethylpyrimidin-4-yl)pyrazolo[1,5-a]pyridin-2-amine] | 1.2 nM |
| Cc1cnnc(Nc2cc3cc(-c4c(OC[C@H]5CCN5C)cnn4C)ccn3n2)c1 [Example 141, 5-[2-methyl-4-[[(2R)-1-methylazetidin-2-yl]methoxy]pyrazol-3-yl]-N-(5-methylpyridazin-3-yl)pyrazolo[1,5-a]pyridin-2-amine] | 1 nM |
| CN1CC[C@@H]1COc1cnn(C)c1-c1ccn2nc(Nc3cnn(C)c3)cc2c1 [Example 142, 5-[2-methyl-4-[[(2R)-1-methylazetidin-2-yl]methoxy]pyrazol-3-yl]-N-(1-methylpyrazol-4-yl)pyrazolo[1,5-a]pyridin-2-amine] | 2.8 nM |
| CN1CC[C@@H]1COc1cnn(C)c1-c1ccn2nc(Nc3ccc(=O)n(C)n3)cc2c1 [Example 143, 2-methyl-6-[[5-[2-methyl-4-[[(2R)-1-methylazetidin-2-yl]methoxy]pyrazol-3-yl]pyrazolo[1,5-a]pyridin-2-yl]amino]pyridazin-3-one] | 2.4 nM |
| Cc1cc(Nc2cc3cc(-c4c(OC[C@H]5CCN5C)cnn4C)ccn3n2)nc(C2CC2)n1 [Example 144, N-(2-cyclopropyl-6-methyl-pyrimidin-4-yl)-5-[2-methyl-4-[[(2R)-1-methylazetidin-2-yl]methoxy]pyrazol-3-yl]pyrazolo[1,5-a]pyridin-2-amine] | < 0.847 nM |
| CCc1cc(Nc2cc3cc(-c4c(OC[C@H]5CCN5C)cnn4C)ccn3n2)nc(C)n1 [Example 145, N-(6-ethyl-2-methyl-pyrimidin-4-yl)-5-[2-methyl-4-[[(2R)-1-methylazetidin-2-yl]methoxy]pyrazol-3-yl]pyrazolo[1,5-a]pyridin-2-amine] | < 0.847 nM |
| COc1nc(C)cc(Nc2cc3cc(-c4c(OC[C@H]5CCN5C)cnn4C)ccn3n2)n1 [Example 146, N-(2-methoxy-6-methyl-pyrimidin-4-yl)-5-[2-methyl-4-[[(2R)-1-methylazetidin-2-yl]methoxy]pyrazol-3-yl]pyrazolo[1,5-a]pyridin-2-amine] | < 0.847 nM |
| COc1nnc(Nc2cc3cc(-c4c(OC[C@H]5CCN5C)cnn4C)ccn3n2)cc1C [Example 147, N-(6-methoxy-5-methyl-pyridazin-3-yl)-5-[2-methyl-4-[[(2R)-1-methylazetidin-2-yl]methoxy]pyrazol-3-yl]pyrazolo[1,5-a]pyridin-2-amine] | 0.9 nM |
| Cc1cn2nc(Nc3cc4cc(-c5c(OC[C@H]6CCN6C)cnn5C)ccn4n3)ccc2n1 [Example 148, 2-methyl-N-[5-[2-methyl-4-[[(2R)-1-methylazetidin-2-yl]methoxy]pyrazol-3-yl]pyrazolo[1,5-a]pyridin-2-yl]imidazo[1,2-b]pyridazin-6-amine] | < 0.847 nM |
| CN1CC[C@@H]1COc1cnn(C)c1-c1ccn2nc(Nc3ccc4nccn4n3)cc2c1 [Example 149, N-[5-[2-methyl-4-[[(2R)-1-methylazetidin-2-yl]methoxy]pyrazol-3-yl]pyrazolo[1,5-a]pyridin-2-yl]imidazo[1,2-b]pyridazin-6-amine] | 2 nM |
| CN1CC[C@@H]1COc1cnn(C)c1-c1ccn2nc(Nc3cnc(C(F)(F)F)cn3)cc2c1 [Example 150, 5-[2-methyl-4-[[(2R)-1-methylazetidin-2-yl]methoxy]pyrazol-3-yl]-N-[5-(trifluoromethyl)pyrazin-2-yl]pyrazolo[1,5-a]pyridin-2-amine] | 7.6 nM |
